Some test systems named below: SN12C renal; OVCAR-4 ovarian; HCT-116 colon; DU-145 prostate; COLO 205 colon; UO-31 renal; SK-MEL-2 melanoma; HT29 colon; SW-620 colon; UACC-62 melanoma; SNB-19 CNS; PC-3 prostate; SK-MEL-5 melanoma.
Holding throughout (assay): DTP human tumour cell line panel, 48 h

Values joined by “and” are separate entries in the source; they are usually repeats but may differ in a detail not shown here. Equal entries are not always repeated.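 Exposure lasted 48 hours, with cells grown in 96-well plates and compounds tested at five concentrations. GI50 is the concentration that inhibits growth by half. The concentration for full growth arrest is given as TGI.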 Where a SMILES comes first, the peptide text is derived from it. The star is where a group is joined. Boc = CC(C)(C)OC(=O)*

As usually defined, the TGI is the concentration giving total growth inhibition. The low end stands for greater sensitivity of the cells, the high end for lower sensitivity of the cells. For `O=[N+]([O-])/C(C(Cl)=C(Cl)Cl)=C(\Nc1cccc2cccnc12)Sc1ccccc1`, the TGI is 87.7 µM in the assay with SN12C renal; 51.4 µM in the assay on OVCAR-4 ovarian; 39 µM with HCT-116 colon; 78.4 µM in the assay with DU-145 prostate; 31.6 µM in the assay with COLO 205 colon; 49.7 µM in the assay with UO-31 renal. Moreover, the TGI is 82.5 µM in the assay with SK-MEL-2 melanoma; 73.6 µM in the assay on HT29 colon; 31.9 µM with SW-620 colon; 88.4 µM in the assay with UACC-62 melanoma; above 100 µM with SNB-19 CNS; 80.5 µM in the assay on PC-3 prostate.
For `COc1nc(N)nc2c1n(C)c[n+]2C`, the concentration for total growth inhibition (TGI) with SN12C renal, with SK-MEL-5 melanoma, in the assay on HCT-116 colon, in the assay on DU-145 prostate, in the assay with COLO 205 colon and in the assay with UO-31 renal was above 100 µM in each case. Further, the TGI with SK-MEL-2 melanoma, in the assay on HT29 colon, in the assay with SW-620 colon, in the assay on UACC-62 melanoma, in the assay with SNB-19 CNS and in the assay with PC-3 prostate was above 100 µM in each case.
On to `CC(C)C(=O)CC(Sc1ccc(N)cc1)c1ccccc1` (stereo not drawn), for which the TGI is 64.9 µM in the assay with SN12C renal; 68.2 µM in the assay with SK-MEL-5 melanoma; 28.7 µM in the assay on HCT-116 colon; above 100 µM with DU-145 prostate; above 100 µM in the assay on COLO 205 colon; above 100 µM in the assay with UO-31 renal. Besides, the TGI was 61.8 µM with SK-MEL-2 melanoma; above 100 µM in the assay on HT29 colon; 34.8 µM in the assay on SW-620 colon; 72.1 µM with UACC-62 melanoma; above 100 µM in the assay with SNB-19 CNS; above 100 µM in the assay on PC-3 prostate.
For `Nc1ccc2c(c1)N(C(=O)CCCC(=O)N1CC(CCl)c3ccc(N)cc31)CC2CCl` (stereo not drawn), the TGI in the assay with SN12C renal was 9.67 µM; with OVCAR-4 ovarian it was above 11.1 µM; in the assay on SK-MEL-5 melanoma, 0.689 µM; in the assay on HCT-116 colon it was above 50 µM; in the assay on DU-145 prostate it was above 21 µM; in the assay with COLO 205 colon, 2.1 µM. Further, the TGI was 2.74 µM with UO-31 renal; 1.43 µM in the assay with SK-MEL-2 melanoma; above 13.5 µM in the assay with HT29 colon; above 50 µM in the assay on SW-620 colon; 11.3 µM in the assay on SNB-19 CNS; 16.4 µM with PC-3 prostate.
On to `N#CCN(Cc1ccccc1)[C@H]1CCC[C@]1(O)/C=C/c1ccc2c(c1)OCO2`, for which the TGI in the assay with OVCAR-4 ovarian is above 100 µM; with SK-MEL-5 melanoma, 30.1 µM; in the assay on DU-145 prostate, above 100 µM; with COLO 205 colon, 30.5 µM; in the assay with UO-31 renal it was above 100 µM; with SK-MEL-2 melanoma, 42.8 µM. The TGI in the assay on HT29 colon is 29.8 µM; in the assay with SW-620 colon, 43.3 µM; with UACC-62 melanoma, 37.9 µM; with SNB-19 CNS, 76.3 µM; in the assay on PC-3 prostate, 35.7 µM.
As for `COc1cc2c(cc1C)NC(=O)/C2=C\c1cccnc1`, the TGI is 37.8 µM in the assay on SN12C renal; 40.4 µM with OVCAR-4 ovarian; 33.5 µM with SK-MEL-5 melanoma; above 100 µM in the assay on HCT-116 colon; 54.3 µM in the assay with DU-145 prostate; 39.8 µM in the assay on COLO 205 colon. The TGI in the assay on UO-31 renal is 39.5 µM; with SK-MEL-2 melanoma it was 76.1 µM; in the assay on HT29 colon, above 100 µM; in the assay on SW-620 colon, 84.8 µM; in the assay with SNB-19 CNS, 40.4 µM; in the assay on PC-3 prostate, above 100 µM.
One may read the GI50 as the concentration at which growth is held to half of that of the control. As for `CC[C@@]1(O)C(=O)OCc2c1cc1n(c2=O)Cc2c-1nc1ccccc1c2C=Nc1ccc(N[C@@H]2c3cc4c(cc3[C@@H](c3cc(OC)c(O)c(OC)c3)[C@H]3C(=O)OC[C@@H]32)OCO4)cc1`, the concentration for 50% growth inhibition (GI50) in the assay on SN12C renal is 0.0291 µM and 0.0101 µM; in the assay on SK-MEL-5 melanoma it was 0.0255 µM; with HCT-116 colon it was 0.0251 µM; in the assay on SK-MEL-2 melanoma it was 2.5 µM and 0.535 µM; in the assay with HT29 colon, 0.364 µM and 0.104 µM; in the assay with PC-3 prostate it was 0.822 µM and 0.0864 µM. Moreover, the TGI with OVCAR-4 ovarian is above 56 µM; in the assay on SK-MEL-5 melanoma, 0.309 µM and 0.366 µM; in the assay with HCT-116 colon it was 6.45 µM and 0.653 µM; with DU-145 prostate, 0.18 µM and 0.028 µM; with COLO 205 colon, > 100 µM and 35.8 µM; with UO-31 renal it was 1.52 µM. In addition, the TGI with HT29 colon was above 100 µM; in the assay on SW-620 colon, 55.7 µM and > 100 µM; with SNB-19 CNS, above 100 µM; in the assay with PC-3 prostate, above 100 µM.
For the compound `COC(=O)C(Cc1c[nH]c2ccccc12)NC(=O)C(Cc1c[nH]c2ccccc12)NC(=O)C(Cc1c[nH]c2ccccc12)NC(=O)C(Cc1c[nH]c2ccccc12)NC(=O)C(Cc1c[nH]c2ccccc12)NC(=O)OC(C)(C)C` (stereo not drawn) (Boc-WWWWW-OMe; configuration not given here), the TGI in the assay with SN12C renal was above 100 µM; with OVCAR-4 ovarian, above 100 µM; in the assay with SK-MEL-5 melanoma it was 56.5 µM; with HCT-116 colon it was above 100 µM; in the assay with DU-145 prostate, above 100 µM; with UO-31 renal it was above 100 µM. Besides, the TGI in the assay on SK-MEL-2 melanoma, in the assay with HT29 colon, in the assay with SW-620 colon, in the assay on UACC-62 melanoma, with SNB-19 CNS and in the assay with PC-3 prostate was above 100 µM in each case.
Consider `CCOC(=O)NC(OCCN(C)C)(C(F)(F)F)C(F)(F)F`, for which the TGI in the assay with SN12C renal, in the assay with SK-MEL-5 melanoma, in the assay with HCT-116 colon, with DU-145 prostate, in the assay with COLO 205 colon and in the assay on UO-31 renal was above 100 µM throughout. The TGI in the assay on SK-MEL-2 melanoma, in the assay on HT29 colon, with SW-620 colon, in the assay on UACC-62 melanoma, in the assay with SNB-19 CNS and in the assay on PC-3 prostate was above 100 µM each time.
As to `C=CCN1C(=O)/C(=C/c2ccccc2)N=C1SC/C=C/C`, the TGI is above 100 µM in the assay on SN12C renal; above 100 µM in the assay on OVCAR-4 ovarian; 47.6 µM in the assay with SK-MEL-5 melanoma; above 100 µM in the assay with HCT-116 colon; above 100 µM in the assay with DU-145 prostate; above 100 µM in the assay on COLO 205 colon. For the same compound, the TGI in the assay on UO-31 renal is above 100 µM; in the assay with SK-MEL-2 melanoma, 63 µM; in the assay with SW-620 colon, above 100 µM; in the assay with UACC-62 melanoma, above 100 µM; in the assay on SNB-19 CNS, above 100 µM; in the assay with PC-3 prostate, 55.8 µM.
For the compound `Cc1ccc(-n2nnc3c(NNc4ccccc4)n[nH]c(=O)c32)cc1`, the TGI with SN12C renal, with OVCAR-4 ovarian, in the assay with SK-MEL-5 melanoma, in the assay on HCT-116 colon, with DU-145 prostate and with COLO 205 colon was above 100 µM throughout. Besides, the TGI in the assay with SK-MEL-2 melanoma, with HT29 colon, with SNB-19 CNS and with PC-3 prostate was above 100 µM each time.

Source of the values: PubChem BioAssay (NCI).
